Data on two molecules can be found in article PMC9389588, “1,6-epi-Cyclophellitol Cyclosulfamidate Is a Bona Fide Lysosomal α-Glucosidase Stabilizer for the Treatment of Pompe Disease” (Journal of the American Chemical Society, 2022).

Assay [1] addresses T1, glucosylceramide synthase (GCS) (Mus musculus, UniProt O88693).
T1 construct: endogenous in cells; host or cells: RAW 264.7
T1 sequence (O88693 1-394): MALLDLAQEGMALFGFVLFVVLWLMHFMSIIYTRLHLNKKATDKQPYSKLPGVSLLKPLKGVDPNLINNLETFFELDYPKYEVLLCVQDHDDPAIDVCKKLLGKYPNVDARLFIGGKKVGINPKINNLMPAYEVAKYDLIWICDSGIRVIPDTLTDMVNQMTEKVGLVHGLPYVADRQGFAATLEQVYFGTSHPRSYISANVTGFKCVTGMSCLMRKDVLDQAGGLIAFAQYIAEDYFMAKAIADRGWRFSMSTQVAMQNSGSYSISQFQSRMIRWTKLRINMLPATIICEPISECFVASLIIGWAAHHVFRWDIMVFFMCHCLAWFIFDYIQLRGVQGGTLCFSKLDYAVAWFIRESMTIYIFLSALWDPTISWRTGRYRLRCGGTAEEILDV
The assay can be described thus: in situ cell inhibition of GCS in RAW 264.7 cells, glucosylation of C6-NBD-ceramide. The assay is classed as cell-based. Conditions: mean ± SD.

Assay [2] has as its target T2, rhGAA (Myozyme) (Homo sapiens, UniProt P10253).
T2 construct: purchased Sanofi Genzyme
The assay can be described thus: time-dependent inhibition of GAA. Conditions: preincubation 15-240 min at apparent IC50 concentration. Type of assay: biochemical. The method, then:
2.1 Biochemical and Biological Methods
2.1.1 In vitro apparent IC50 experiments
To determine in vitro apparent IC50 values, 40 μL of enzyme-mixture was pre-incubated with 40 μL of inhibitor for […]
and 2% DMSO (v/v). GANAB in 150 mM McIlvaine buffer pH 7.0, 0.1% BSA (w/v) and 2% DMSO (v/v). GBA1 in 150 mM McIlvaine buffer pH 5.2, 0.2% Taurocholate (w/v), 0.1% Triton X-100 (v/v), 0.1% BSA (w/v), 2% DMSO (v/v). GBA2 in 150 mM McIlvaine pH 5.8, 0.1% BSA (w/v).
After preincubation, 25 μL of E+I mixture was added to a 96 wells plate and 100 μL substrate solution in the appropriate buffer was subsequently added. GAA activity was measured using final concentrations of 47 nM enzyme (Myozyme) and 3.0 mM 4-MU-α-D-glucopyranoside, for 30 minutes at 37 ℃. GANAB activity was measured using wt fibroblasts and 2.4 mM 4-MU-α-D-glucopyranoside, for 2 h at 37 ℃. GBA1 activity was measured using final concentrations of 0.7 nM enzyme (Cerezyme) and 3.0 mM 4-methylumbeliferone(4-MU)-β-D-glucopyranoside, for 30 min at 37 ℃. GBA2 residual activity was measured using cellular homogenates of HEK293T over-expressing GBA2 pre-incubated for 30 min with a GBA1 inhibitor (1 µM 37 (ME656), see Figure S1 for chemical structure), and further incubation with 3.0 mM 4-methylumbeliferone(4MU)-β-D-glucopyranoside […]

Assay [3] concerns the target T3, β-glucosidase GBA1 (Cerezyme) (Homo sapiens, UniProt P04062, R534H).
T3 construct: purchased
T3 sequence (P04062 40-536 R534H): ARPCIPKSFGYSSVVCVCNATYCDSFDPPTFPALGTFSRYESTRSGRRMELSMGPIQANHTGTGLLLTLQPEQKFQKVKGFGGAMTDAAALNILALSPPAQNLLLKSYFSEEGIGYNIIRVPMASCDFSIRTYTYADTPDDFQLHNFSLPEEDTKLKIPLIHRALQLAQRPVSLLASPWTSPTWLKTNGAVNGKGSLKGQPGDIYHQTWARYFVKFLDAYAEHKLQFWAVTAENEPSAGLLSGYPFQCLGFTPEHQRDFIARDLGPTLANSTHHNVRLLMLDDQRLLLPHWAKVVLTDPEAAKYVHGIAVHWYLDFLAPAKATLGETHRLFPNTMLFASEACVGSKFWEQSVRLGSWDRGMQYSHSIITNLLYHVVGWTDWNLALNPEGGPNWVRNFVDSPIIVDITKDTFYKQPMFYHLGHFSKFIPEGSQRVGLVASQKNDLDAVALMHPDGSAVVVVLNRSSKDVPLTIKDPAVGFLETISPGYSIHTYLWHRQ
The assay can be described thus: in vitro apparent IC50, GBA1 (Cerezyme), 4-MU-β-D-glucopyranoside. Conditions: pH 5.2, mean ± SD, read-out: in vitro GBA IC50. The assay is classed as biochemical.

Assay [4] has as its target α-glucosidase GAA (Myozyme) (Homo sapiens, UniProt P10253). Kind of assay: in vitro apparent IC50, GAA (Myozyme), 4-MU-α-D-glucopyranoside. Conditions: Myozyme 47 nM, pH 4.0, 30 min preincubation, mean ± SD. The arrangement: purchased Sanofi Genzyme. The assay is classed as biochemical.

Bounds are passed on as bounds.

For `O=S1(=O)N[C@@H]2[C@H](O)[C@@H](O)[C@H](O)[C@@H](CO)[C@@H]2O1` [compound 4, 1,6-epi-cyclophellitol cyclosulfamidate], the results for the IC50 in assay [1], in assay [3] and in assay [4] were above 50 µM, above 500 µM and 5.17 ± 0.195 µM, respectively. Moreover, the type of inhibition result in assay [2] was “competitive manner”.

On to `O=S1(=O)N[C@H]2[C@H](CO)[C@@H](O)[C@H](O)[C@@H](O)[C@H]2O1` [compound 6], for which the IC50 in assay [1] was above 50 µM; in assay [3], above 500 µM; in assay [4] it was 112 ± 2.54 µM. In assay [2], the type of inhibition result was “irreversible inhibitor”.
